Values quoted from earlier work as cited in patent US20080152709A1, “CLONIDINE COMPOSITION AND METHOD OF USE” (DRUGTECH CORPORATION, priority 2006, published 2008).
Where a name gives a salt, the structure may show the parent alone. Read-outs that look alike come from different tables or passages of the source.

What was measured:
[1] = administered orally
[2] = oral 0.075 mg twice daily for three days; third day
[3] = system: patients with morning hypertension; conditions: once daily in the evening, added to pre-existing antihypertensive regimen
[4] = once daily oral 0.25 and 0.5 mg, sustained-release formulation
[5] = not given; remark: listed apart in the source
[6] = not given; remark: listed apart in the source
[7] = oral administration of 0.3 mg
[8] = single oral dose of 0.3 mg clonidine hydrochloride
[9] = single oral dose of 0.3 mg, all subjects

SMILES	mean maximum plasma concentration [8] [ng/mL]	time of mean maximum concentration after administration [8] [h]	plasma concentration at 24 hours (single oral dose of 0.3 mg clonidine hydrochloride, 24 hours)	salivary flow (dry mouth symptoms) [9]	sedation [9]	absorption from the gastrointestinal tract [1]	peak clonidine concentration [2] [ng/mL]	morning blood pressure [3]	24-hour antihypertensive efficacy [4]	effect on diastolic blood pressure ([5]; 0.1 mg administered at 4 pm or 8 pm)	effect on diastolic blood pressure ([5]; 0.1 mg administered at 6 am or 12 noon)	peak clonidine concentration (Cmax) ([6]; single oral dose 0.075 mg) [ng/mL]	plasma concentration 24 hours after administration ([6]; single oral dose 0.075 mg) [ng/mL]	peak clonidine concentration (Cmax) ([6]; single oral dose 0.15 mg) [ng/mL]	plasma concentration 24 hours after administration ([6]; single oral dose 0.15 mg) [ng/mL]	peak clonidine concentration (Cmax) ([6]; single oral dose 0.25 mg) [ng/mL]	plasma concentration 24 hours after administration ([6]; single oral dose 0.25 mg) [ng/mL]	peak plasma clonidine concentration [7] [ng/mL]
Clc1cccc(Cl)c1N=C1NCCN1 [clonidine hydrochloride]	1.35	1	below 0.5 ng/ml	marked reduction in salivary flow	markedly sedated													
Clc1cccc(Cl)c1NC1=NCCN1 [clonidine, N-(2,6-dichlorophenyl)-4,5-dihydro-1H-imidazol-2-amine]						almost completely absorbed	0.39	effective in reducing morning blood pressure	Reduction in blood pressure was observed throughout the 24 hours	not	reduced diastolic blood pressure	0.28	0.06	0.61	0.07	1.16	0.34	1.34
